Patent EP0575454B1, “USE OF CUCURBITINE FOR THE PREPARATION OF A COSMETIC OR PHARMACEUTICAL, PARTICULARLY DERMATOLOGICAL, ANTIALLERGIC COMPOSITION AND METHOD INVOLVING APPLICATION THEREOF” (PARFUMS CHRISTIAN DIOR, priority 1991, dated 1992)

Assays:
[1] = system: histidine décarboxylase (HDC); test: Enzymatic test: colorimetric assay (MBTH/DMAB) of histidine decarboxylase inhibition, initial reaction rates (Michaelis curves); type: biochemical; conditions: for vitesse initiale: racemic cucurbitine
Excerpt: Ce test est basé sur l'action inhibitrice de la cucurbitine sur l'enzyme histidine décarboxylase (HDC) qui transforme l'histidine en histamine, par rapport à celle de la tritoqualine, qui est un inhibiteur connu de l'HDC (voir Carpi C., Maggi G.C. Bull. Soc Ital. Sper. 1968, 44 (6 543-4), et qui est utilisée en thérapeutique comme hypohistaminémiant sous le non de Hypostamine®.
L'activité inhibitrice sur l'HDC peut être aisément réalisée par un dosage colorimétrique sur la base de la réaction chimique suivante :
MBTH = 3-méthyl-2-benzothiazolinone hydrazone DMAB = 3-(diméthylamino)benzoic acid
En pratique, on observe que la formation de la coloration bleue est proportionnelle à la concentration en histidine consommée. On a ainsi pu définir des vitesses initiales de réaction et établir des courbes dites de Mickaelis comme décrit dans Fundamentals of Enzymology, 2nd Ed. Oxford Univ. Press, 1989.
La vitesse initiale est exprimée en variation d'absorbance par minute.
Les résultats obtenus avec diverses concentrations initiales d'histidine, à savoir à 132 nmol, 265 nmol, et 530 nmol, respectivement sans effecteur, avec tritoqualine comme inhibiteur d'HDC connu, et avec la cucurbitine sous forme racémique comme inhibiteur selon l'invention sont répertoriés au tableau II ci-après et font l'objet de la courbe de Mickaelis, objet de la figure 1. Tableau II

enzyme HDC = test: RIA (radioimmunoassay) of the histamine produced by the HDC enzyme; type: biochemical; conditions: for % I (Inhibition) à 5 min / histamine libérée / % I (Inhibition) à 10 min: histidine 16.10^-3 molaire, effector 2.10^-3 molaire; for % I (Inhibition) à 5 min / % I (Inhibition) à 10 min: pH 6,3, 2000 µM; for histamine libérée: phosphate buffer pH 6,3
Excerpt: On peut également mettre en évidence l'activité anti-histaminique de la cucurbitine par un dosage radioimmunologique (Radio Immuno Assay ou "RIA") de la manière suivante.
Ce dosage a lieu en dosant l'histamine directement produite sous l'action de l'enzyme HDC, par la méthode RIA, bien connue à l'homme de l'art, et notamment décrite dans la notice d'utilisation d'un kit de dosage dénommé HISTAMINE Radioimmunoassay kit (Cat. # 1302) commercialisé par la Société IMMUNOTECH (Marseille-France).
On dose au cours du temps La quantité d'histamine libérée (en nanomoles) pour une concentration de 16.10^-3 molaire d'histidine dans un tampon phosphate à pH 6,3, respectivement sans effecteur, avec la tritoqualine comme effecteur de comparaison et avec de la cucurbitine racémique de synthèse comme agent anti-histaminique selon l'invention. La tritoqualine et la cucurbitine sont utilisées à la concentration de 2.10^-3 molaire.
Les résultats obtenus exprimés en nanomoles […] libérée sont répertoriés au tableau III ci-après et font l'objet de la courbe de la figure 2 où l'on a indiqué en ordonnées le nombre de nanomoles d'histamine libérée et en abscisses le temps exprimé en minute. La courbe sans effecteur est tracée en trait continu, la courbe obtenue avec la tritoqualine est tracée en trait mixte et la courbe obtenue avec la cucurbitine est tracée en pointillés. TABLEAU III

| SMILES | vitesse initiale ([1]; Histidine 132 nmol) | vitesse initiale ([1]; Histidine 265 nmol) | vitesse initiale ([1]; Histidine 530 nmol) | inhibiteur d'HDC (comparison in words) ([1]; compared with tritoqualine, Table II and figure 1) | % I (Inhibition) à 5 min (enzyme HDC; 5 min) [%] | histamine libérée (enzyme HDC; 5 min) | % I (Inhibition) à 10 min (enzyme HDC; 10 min) [%] | histamine libérée (enzyme HDC; 10 min) | activité inhibitrice de la formation d'histamine (comparison in words) (enzyme HDC; compared with tritoqualine, after a few minutes) |
| --- | --- | --- | --- | --- | --- | --- | --- | --- | --- |
| NC1(C(=O)O)CCNC1 (racemic) [Cucurbitine, acide 3-amine-3-pyrrolidinecarboxylique] | 0,013 variation d'absorbance par minute | 0,0242 variation d'absorbance par minute | 0,042 variation d'absorbance par minute | beaucoup plus puissant que la tritoqualine | 55 | 14,85 nanomoles | 73 | 38,29 nanomoles | nettement plus puissante que la tritoqualine |
| CCOc1c(N)c2c(c(OCC)c1OCC)C(C1c3c(cc4c(c3OC)OCO4)CCN1C)OC2=O (stereo not shown) [Tritoqualine, tritoqualine, reference compound] | 0,021 variation d'absorbance par minute | 0,0374 variation d'absorbance par minute | 0,0604 variation d'absorbance par minute | – | 49 | 16,48 nanomoles | 65 | 49,27 nanomoles | – |
